Measured values: ChEMBL document CHEMBL4396961, “Exploring the size of the lipophilic unit of the soluble epoxide hydrolase inhibitors” (Bioorg Med Chem, 2019)
Values after ≈ are worked out from the molar mass of the structure shown.

Experiments:
[1] = Apparent permeability across apical to basolateral membrane in human Caco2 cells at 10 uM measured after 2 hrs by UPLC-MS/MS analysis; settings: caco-2, 2 h
[2] = Apparent permeability across basolateral to apical membrane in human Caco2 cells at 10 uM measured after 2 hrs by UPLC-MS/MS analysis; settings: caco-2, 2 h
[3] = physchem; settings: 1% DMSO : 99% PBS buffer solution
[4] = molecular target: T1, Bifunctional epoxide hydrolase 2 (Homo sapiens, UniProt P34913); assay: Inhibition of recombinant human liver soluble epoxide hydrolase expressed in baculovirus infected Sf21 cells using NEPC as substrate by fluorescence based assay; type: cell-based
T1 sequence (P34913 whole entry): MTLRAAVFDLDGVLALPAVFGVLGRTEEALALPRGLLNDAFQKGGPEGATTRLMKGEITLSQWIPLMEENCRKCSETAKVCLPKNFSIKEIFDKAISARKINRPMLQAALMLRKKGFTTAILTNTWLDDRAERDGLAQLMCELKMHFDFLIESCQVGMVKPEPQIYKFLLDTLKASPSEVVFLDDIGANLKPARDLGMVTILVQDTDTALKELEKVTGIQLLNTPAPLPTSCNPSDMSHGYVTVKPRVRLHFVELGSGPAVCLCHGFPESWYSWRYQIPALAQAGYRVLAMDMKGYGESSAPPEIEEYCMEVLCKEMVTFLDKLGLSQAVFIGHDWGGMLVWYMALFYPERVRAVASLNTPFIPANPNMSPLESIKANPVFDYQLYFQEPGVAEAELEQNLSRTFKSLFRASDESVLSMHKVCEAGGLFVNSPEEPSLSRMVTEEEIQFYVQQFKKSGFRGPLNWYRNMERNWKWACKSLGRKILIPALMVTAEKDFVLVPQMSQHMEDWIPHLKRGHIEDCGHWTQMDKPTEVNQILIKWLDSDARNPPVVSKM

[5] = Microsomal stability in human microsomes assessed as parent compound remaining in presence of NADP, glucose-6-phosphate and glucose-6-phosphate dehydrogenase measured after 60 mins by UPLC-MS/MS analysis
[6] = molecular target: T2, Bifunctional epoxide hydrolase 2 (Mus musculus, UniProt P34914); assay: Inhibition of murine soluble epoxide hydrolase expressed in baculovirus infected Sf21 cells using NEPC as substrate by fluorescence based assay; type: cell-based
T2 sequence (P34914 whole entry): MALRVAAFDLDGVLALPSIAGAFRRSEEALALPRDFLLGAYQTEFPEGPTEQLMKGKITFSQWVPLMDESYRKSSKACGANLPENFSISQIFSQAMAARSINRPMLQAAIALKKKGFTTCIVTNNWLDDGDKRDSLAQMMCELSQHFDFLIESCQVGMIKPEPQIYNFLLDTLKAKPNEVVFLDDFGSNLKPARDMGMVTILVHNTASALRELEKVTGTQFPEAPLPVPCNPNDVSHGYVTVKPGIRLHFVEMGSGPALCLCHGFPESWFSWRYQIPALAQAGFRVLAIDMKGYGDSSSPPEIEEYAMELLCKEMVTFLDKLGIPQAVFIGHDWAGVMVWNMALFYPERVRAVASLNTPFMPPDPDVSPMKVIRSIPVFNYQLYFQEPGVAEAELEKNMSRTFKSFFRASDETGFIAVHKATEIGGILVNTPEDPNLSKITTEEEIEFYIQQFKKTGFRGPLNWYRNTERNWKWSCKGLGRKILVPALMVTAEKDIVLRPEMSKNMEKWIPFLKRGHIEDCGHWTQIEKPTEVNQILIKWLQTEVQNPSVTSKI

[7] = Efflux ratio of apparent permeability across basolateral to apical membrane over apical to basolateral membrane in human Caco2 cells at 10 uM measured after 2 hrs by UPLC-MS/MS analysis; settings: caco-2, 2 h

SMILES	Papp [1] [×10⁻⁶ cm/s]	Papp [2] [×10⁻⁶ cm/s]	solubility kinetic at 2 h [3] [µM]	IC50 [4] [nM]	remaining at 1 h [5] [%]	IC50 [6] [nM]	Ratio [7]
O=C(Nc1ccc(F)c(F)c1F)NC12CC3CC(CC(C3)C1)C2	1.18	0.18	57 (≈ 18.5 µg/mL)	–	–	–	–
CC(=O)N1CCC(NC(=O)NC23CC4CC(CC2C4)C3)CC1	–	–	–	21.7	88.7	–	–
CC12CC3CC1(C)CC3(NC(=O)Nc1ccc(F)c(F)c1F)C2	–	–	66 (≈ 21.4 µg/mL)	0.5	30	–	–
CC12CC3CC1(C)CC3(CNC(=O)Nc1ccc(F)c(F)c1F)C2	–	–	–	0.4	–	–	–
CC(=O)N1CCC(NC(=O)NC23CC4(C)CC2CC4(C)C3)CC1	15.92	18.02	> 100	6.5	59.3	3.3	1.1
CC(=O)N1CCC(NC(=O)NC2C3CC4C5CC6CC4C2C(C6)C5C3)CC1 (stereo unspecified)	15.62	14.69	86 (≈ 32 µg/mL)	3.4	0	5	1
O=C(NC1C2CC3C4CC5CC3C1C(C5)C4C2)N[C@H]1CC[C@H](Oc2ccc(C(=O)O)cc2)CC1 (stereo partly specified)	0.31	6.75	7 (≈ 3.25 µg/mL)	0.5	14.6	–	22.2
CC(=O)N1CCC(NC(=O)NC23CC4CC(CC(C4)C2)C3)CC1 [AR9281]	–	–	> 100	–	–	–	–
C[C@]12CC[C@H]3[C@@H](CCC4=CC(=O)CC[C@@]43C)[C@@H]1CC[C@@H]2O [TESTOSTERONE]	–	–	–	–	22.4	–	–
